Source: ChEMBL document CHEMBL4616581, “Current scenario of artemisinin and its analogues for antimalarial activity” (Eur J Med Chem, 2019)
≈ marks a conversion by molar mass, not a printed value.

Columns and labels:
Format in all cases: functional, organism-based
Plasmodium falciparum [1] = assay: Antimalarial activity against Plasmodium falciparum 3D7 after 72 hrs by SYBR green dye-based assay; conditions: 3D7, 72 h
Plasmodium falciparum [2] = assay: Antimalarial activity against Plasmodium falciparum K1 after 48 hrs by [3H]hypoxanthine incorporation assay
Plasmodium falciparum [3] = assay: Antimalarial activity against Plasmodium falciparum HB3 after 48 hrs by [3H]hypoxanthine incorporation assay
Plasmodium falciparum [4] = assay: Antimalarial activity against blood stages of chloroquine-resistant Plasmodium falciparum K1
Plasmodium falciparum [5] = assay: Antimalarial activity against blood stages of chloroquine-sensitive Plasmodium falciparum 3D7

C[C@H]1[C@H](OC(=O)CCC(=O)Nc2ccc3ncnc(Nc4ccc(Cl)c(Cl)c4)c3c2)O[C@@H]2O[C@]3(C)CC[C@H]4[C@H](C)CC[C@@H]1[C@@]24OO3
EC50 (Plasmodium falciparum [1]): 1.4 nM

C[C@H]1[C@H](Oc2cccc3ccccc23)O[C@@H]2O[C@]3(C)CC[C@H]4[C@H](C)CC[C@@H]1[C@@]24OO3
IC50 (Plasmodium falciparum [2]): 2.88 nM
IC50 (Plasmodium falciparum [3]): 2.88 nM

C[C@H]1[C@H](OC(=O)CCC(=O)Oc2ccc(Nc3ncnc4ccccc34)cc2)O[C@@H]2O[C@]3(C)CC[C@H]4[C@H](C)CC[C@@H]1[C@@]24OO3
EC50 (Plasmodium falciparum [1]): 3.8 nM

C[C@@H]1CC[C@H]2[C@@H](C)C(=O)O[C@@H]3O[C@@]4(C)CC[C@@H]1[C@]32OO4 [ARTEMISININ]
IC50 (Plasmodium falciparum [4]): 0.68 ng/mL (≈ 2.41 nM)
EC50 (Plasmodium falciparum [5]): 12.1 nM
